# Results reported in ChEMBL document CHEMBL5143655, “Synthesis and biological evaluation of 1,2,4-triazole derivatives as potential Nrf2 activators for the treatment of cerebral ischemic injury” (Eur J Med Chem, 2022).
# The source made the active and inactive calls. No cut-off for these calls is given here.
# How the values were obtained:
# [1] = Metabolic stability in human plasma assessed as parent compound remaining at 200 uM measured after 60 min by LC-MS/MS analysis relative to control; type: ADME, cell-free; settings: read-out: Stability
# Rattus norvegicus [2] = experiment: Neuroprotective activity in Sprague-Dawley rat model of middle cerebral artery occlusion-induced ischemia-reperfusion injury assessed as attenuation of behavioral deficit at 10 mg/kg, ip preincubated for 1 hrs followed by MCAO operation and further incubated with compound for 4 hrs after reperfusion; type: functional; settings: time 5 hrs
# [3] = Acute toxicity in ip dosed BALB/c mouse assessed as lethal dose measured after 7 days; type: organism-based; settings: in vivo, time 7 day
# [4] = MRT in Sprague-Dawley rat at 5 mg/kg, ip measured upto 24 hrs by LC-MS/MS analysis; type: ADME, organism-based; settings: in vivo
# [5] = Metabolic stability in human plasma assessed as parent compound remaining at 200 uM measured after 15 min by LC-MS/MS analysis relative to control; type: ADME, cell-free; settings: read-out: Stability
# PC-12 [6] = experiment: Neuroprotective activity against SNP induced rat PC-12 cells assessed as increase in cell viability at 5 uM preincubated for 2 hrs followed by SNP stimulation for 24 hrs by MTT assay relative to control; type: functional
# Rattus norvegicus [7] = experiment: Neuroprotective activity in Sprague-Dawley rat model of middle cerebral artery occlusion-induced ischemia-reperfusion injury assessed as decrease in neurological score at 3 mg/kg, ip preincubated for 1 hrs followed by MCAO operation and further incubated with compound for 4 hrs after reperfusion; type: functional; settings: time 5 hrs
# [8] = molecular target: T1, Nuclear factor erythroid 2-related factor 2 (Rattus norvegicus) (UniProt O54968); experiment: Activation of Nrf2 pathway in rat PC-12 cells assessed as Nrf2 accumulation in nucleus measured after 3 hrs by Western blot analysis; type: cell-based; settings: filed as activator, dose 2.5-10 µM, DDE = dose-dependent effect
# T1 sequence (whole entry): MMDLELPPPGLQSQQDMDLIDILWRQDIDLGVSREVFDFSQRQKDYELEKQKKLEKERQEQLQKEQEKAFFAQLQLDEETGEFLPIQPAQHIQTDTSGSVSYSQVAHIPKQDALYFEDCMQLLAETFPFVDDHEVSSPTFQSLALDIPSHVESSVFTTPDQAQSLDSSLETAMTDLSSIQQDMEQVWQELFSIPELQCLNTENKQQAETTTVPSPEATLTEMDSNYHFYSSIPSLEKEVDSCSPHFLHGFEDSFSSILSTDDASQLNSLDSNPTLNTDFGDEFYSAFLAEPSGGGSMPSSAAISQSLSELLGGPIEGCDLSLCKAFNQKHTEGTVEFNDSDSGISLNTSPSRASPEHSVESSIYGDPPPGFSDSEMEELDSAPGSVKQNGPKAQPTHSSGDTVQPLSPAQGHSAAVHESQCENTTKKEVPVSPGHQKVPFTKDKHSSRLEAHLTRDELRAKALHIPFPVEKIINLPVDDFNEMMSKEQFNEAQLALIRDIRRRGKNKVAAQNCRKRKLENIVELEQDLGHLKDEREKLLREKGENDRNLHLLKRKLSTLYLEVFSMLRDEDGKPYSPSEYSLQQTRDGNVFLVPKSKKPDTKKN
# [9] = Cmax in Sprague-Dawley rat at 5 mg/kg, iv measured upto 24 hrs by LC-MS/MS analysis; type: ADME, organism-based; set-up: dose 5 mg/kg, time < 24 hrs, route iv; settings: in vivo
# PC-12 [10] = experiment: (§1) Neuroprotective activity against SNP-induced apoptotic rat PC-12 cells assessed as restoration of cell number at 10 uM preincubated for 2 hrs followed by SNP stimulation for 24 hrs by Hoechst 33258 staining based fluorescence microscopic analysis; type: functional
# Rattus norvegicus [11] = experiment: Neuroprotective activity in Sprague-Dawley rat model of middle cerebral artery occlusion-induced ischemia reperfusion injury assessed as decrease in serum MDA level at 3 to 30 mg/kg, ip preincubated for 1 hrs followed by MCAO operation and further incubated with compound for 4 hrs after reperfusion; type: functional, organism-based; settings: dose 3-30 mg/kg, time 5.0 hrs
# [12] = AUC (0 to infinity) in Sprague-Dawley rat at 5 mg/kg, ip measured upto 24 hrs by LC-MS/MS analysis; type: ADME, organism-based; set-up: time < 24 hrs, dose 5 mg/kg, route ip; settings: in vivo
# PC-12 [13] = experiment: as §1, with “reduction in nuclear shrinkage by measuring the decrease in blue fluorescence signal” for “restoration of cell number”; type: functional, cell-based
# Rattus norvegicus [14] = experiment: Neuroprotective activity in Sprague-Dawley rat model of middle cerebral artery occlusion-induced ischemia-reperfusion injury assessed as decrease in cerebral infarct volume at 30 mg/kg, ip preincubated for 1 hrs followed by MCAO operation and further incubated with compound for 4 hrs after reperfusion by TTC staining based assay; type: functional; set-up: scale not given: the % may be the effect or the level left; settings: time 5 hrs
# [15] = Metabolic stability in human plasma assessed as parent compound remaining at 200 uM measured after 120 min by LC-MS/MS analysis relative to control; type: ADME, cell-free; settings: read-out: Stability
# Rattus norvegicus [16] = experiment: Neuroprotective activity in Sprague-Dawley rat model of middle cerebral artery occlusion-induced ischemia reperfusion injury assessed as increase in serum SOD level at 3 to 30 mg/kg, ip preincubated for 1 hrs followed by MCAO operation and further incubated with compound for 4 hrs after reperfusion; type: functional, organism-based; settings: dose 3-30 mg/kg, time 5.0 hrs
# [17] = Cmax in Sprague-Dawley rat at 5 mg/kg, ip measured at 2 hrs by LC-MS/MS analysis; type: ADME, organism-based; set-up: dose 5 mg/kg, time 2 hrs, route ip; settings: in vivo
# PC-12 [18] = experiment: Neuroprotective activity against SNP induced rat PC-12 cells assessed as increase in cell viability at 10 uM preincubated for 2 hrs followed by SNP stimulation for 24 hrs by MTT assay relative to control; type: functional
compound,measurement,setting,value
Cc1cc(C)cc(-n2nc(-c3ccc(C(F)(F)F)cc3O)nc2-c2ccccc2O)c1,"remaining at 1 h, 200 µM",[1],90.7%
same,Activity,Rattus norvegicus [2],1.6
same,LD50 at 168 h,[3],789 mg/kg
same,MRT,[4],16.5 h
same,"remaining at 0.25 h, 200 µM",[5],95.8%
same,Activity,PC-12 [6],101.59%
same,Activity,Rattus norvegicus [7],1.87
same,Activity,[8],Dde
same,Cmax,[9],6910 ng/mL
same,Activity,PC-12 [10],Active
same,Activity,Rattus norvegicus [11],Active
same,AUC(0-inf),[12],2930 ng·h/mL
same,Activity,PC-12 [13],Active
same,Activity,Rattus norvegicus [14],12.23%
same,"remaining at 2 h, 200 µM",[15],88.9%
same,Activity,Rattus norvegicus [16],Active
same,Cmax,[17],323 ng/mL
same,Activity,PC-12 [18],105.13%
